US5010097A, “Novel compounds” (Beecham Pharmaceuticals, priority 1987, dated 1991)

Molecular target: T1, human collagenase (human lung fibroblast cell line WI-38) (Homo sapiens, UniProt P03956)
T1 construct: purified from culture supernatants from the human lung fibroblast cell line, WI-38; endogenous in cells; host or cells: WI-38 human lung fibroblasts (enzyme purified from culture supernatants)
T1 sequence (P03956 100-469): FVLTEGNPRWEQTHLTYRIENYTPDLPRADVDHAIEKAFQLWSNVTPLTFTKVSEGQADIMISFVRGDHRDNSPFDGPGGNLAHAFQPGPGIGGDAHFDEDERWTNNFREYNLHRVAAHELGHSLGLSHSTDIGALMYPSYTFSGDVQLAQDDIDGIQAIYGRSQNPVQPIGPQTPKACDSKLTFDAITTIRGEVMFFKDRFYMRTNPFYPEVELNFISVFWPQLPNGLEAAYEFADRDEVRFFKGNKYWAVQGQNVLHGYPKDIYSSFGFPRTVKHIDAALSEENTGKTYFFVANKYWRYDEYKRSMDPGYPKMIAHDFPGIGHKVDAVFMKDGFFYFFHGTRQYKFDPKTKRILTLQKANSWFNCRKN
Assay: Inhibition of Human Lung Fibroblast Collagenase (collagenase inhibitor assay, 14C-acetylated rat skin Type I collagen substrate)
Assay type: biochemical
Experimental: The test is performed essentially as in Cawston and Barrett Anal. Biochem. 99, 340-345 (1979). Compounds for testing are dissolved in methanol and added to purified human collagenase purified from culture supernatants from the human lung fibroblast cell line, WI-38, diluted in a suitable aqueous buffer. After a 5 min pre-incubation at 37° C., the assay tubes are cooled to 4° and ^14 C-acetylated rat skin Type I collagen is added. The assay tubes are incubated at 37° C. overnight. The ^14 C-collagen forms insoluble fibrils which are the substrate for the enzyme.
To terminate the assay, the assay tubes are spun at 12000 rpm for 25 min. Undigested ^14 C-collagen remains as insoluble fibrils and is pelleted, while digested ^14 C-collagen remains as soluble peptides in the supernatant. A sample of the supernatant is taken for liquid scintillation counting.
The activity of collagenase inhibitors (IC50 : 50% inhibitory concentration) is expressed as the concentration of compound that inhibits a known (standard) concentration of enzyme by 50%, or as the % inhibition of the collagen degradation caused by the known (standard) concentration of enzyme, at a stated concentration of the compound.

With `CNC(=O)[C@H](Cc1ccc(OC)cc1)NC(=O)C(CC(C)C)C(S)CC(C)=O` (single isomer, unassigned) [2 A] as the compound, how does the IC50 (purified human collagenase from WI-38 culture supernatants, 14C-collagen fibrils, 5 min pre-incubation at 37 °C, then 37 °C overnight) read?
The IC50 was 14 nM.

For `CNC(=O)[C@H](Cc1ccc(OC)cc1)NC(=O)C(CC(C)C)C(S)CC(C)=O` (some centres unmarked) [2 C/D], which “Inhibition (% inhibition of the collagen degradation)” value (at 1000 (column head nm), purified human collagenase from WI-38, 37 °C overnight) is on record?
Its value is 58%.
